Data as given in ChEMBL document CHEMBL2380302, “Synthesis of 3-O-propargylated betulinic acid and its 1,2,3-triazoles as potential apoptotic agents” (Eur J Med Chem, 2013).
pIC50: −log10 of the molar value.

Assays:
[1] = system: HCT-15; assay: Cytotoxicity against human HCT15 cells at 50 uM after 48 hrs by SRB assay; assay type: functional; details: HCT-15, 48 h, read-out: GI
[2] = system: SF-295; assay: Cytotoxicity against human SF295 cells at 30 uM after 48 hrs by SRB assay; assay type: functional; details: SF-295, 48 h, read-out: GI
[3] = system: HL-60; assay: Cytotoxicity against human HL60 cells at 30 uM after 48 hrs by SRB assay; assay type: functional; details: HL-60, 48 h, read-out: GI
[4] = system: HEp-2; assay: Cytotoxicity against human Hep2 cells at 30 uM after 48 hrs by SRB assay; assay type: functional; details: HEp-2, 48 h, read-out: GI
[5] = system: PC-3; assay: Cytotoxicity against human PC3 cells at 50 uM after 48 hrs by SRB assay; assay type: functional; details: PC-3, 48 h, read-out: GI
[6] = system: DU-145; assay: Cytotoxicity against human DU145 cells after 48 hrs by SRB assay; assay type: functional, cell-based; details: DU-145, 48 h
[7] = system: HEp-2; assay: Cytotoxicity against human Hep2 cells at 10 uM after 48 hrs by SRB assay; assay type: functional; details: HEp-2, 48 h, read-out: GI
[8] = system: THP-1; assay: Cytotoxicity against human THP1 cells at 10 uM after 48 hrs by SRB assay; assay type: functional; details: THP-1, 48 h, read-out: GI
[9] = system: MCF7; assay: Cytotoxicity against human MCF7 cells at 10 uM after 48 hrs by SRB assay; assay type: functional; details: MCF7, 48 h, read-out: GI
[10] = system: MCF7; assay: Cytotoxicity against human MCF7 cells after 48 hrs by SRB assay; assay type: functional, cell-based; details: MCF7, 48 h
[11] = system: PC-3; assay: Cytotoxicity against human PC3 cells at 30 uM after 48 hrs by SRB assay; assay type: functional; details: PC-3, 48 h, read-out: GI
[12] = system: SF-295; assay: Cytotoxicity against human SF295 cells after 48 hrs by SRB assay; assay type: functional, cell-based; details: SF-295, 48 h
[13] = system: PC-3; assay: Cytotoxicity against human PC3 cells at 10 uM after 48 hrs by SRB assay; assay type: functional; details: PC-3, 48 h, read-out: GI
[14] = system: HCT-15; assay: Cytotoxicity against human HCT15 cells at 30 uM after 48 hrs by SRB assay; assay type: functional; details: HCT-15, 48 h, read-out: GI
[15] = system: HCT-15; assay: Cytotoxicity against human HCT15 cells after 48 hrs by SRB assay; assay type: functional, cell-based; details: HCT-15, 48 h
[16] = system: A549; assay: Cytotoxicity against human A549 cells after 48 hrs by SRB assay; assay type: functional, cell-based; details: A549, 48 h
[17] = system: HL-60; assay: Cytotoxicity against human HL60 cells at 50 uM after 48 hrs by SRB assay; assay type: functional; details: HL-60, 48 h, read-out: GI
[18] = system: THP-1; assay: Cytotoxicity against human THP1 cells after 48 hrs by SRB assay; assay type: functional, cell-based; details: THP-1, 48 h
[19] = system: DU-145; assay: Cytotoxicity against human DU145 cells at 30 uM after 48 hrs by SRB assay; assay type: functional; details: DU-145, 48 h, read-out: GI
[20] = system: A549; assay: Cytotoxicity against human A549 cells at 50 uM after 48 hrs by SRB assay; assay type: functional; details: A549, 48 h, read-out: GI
[21] = system: DU-145; assay: Cytotoxicity against human DU145 cells at 50 uM after 48 hrs by SRB assay; assay type: functional; details: DU-145, 48 h, read-out: GI
[22] = system: HEp-2; assay: Cytotoxicity against human Hep2 cells at 50 uM after 48 hrs by SRB assay; assay type: functional; details: HEp-2, 48 h, read-out: GI
[23] = system: A549; assay: Cytotoxicity against human A549 cells at 30 uM after 48 hrs by SRB assay; assay type: functional; details: A549, 48 h, read-out: GI
[24] = system: PC-3; assay: Cytotoxicity against human PC3 cells after 48 hrs by SRB assay; assay type: functional, cell-based; details: PC-3, 48 h
[25] = system: HEp-2; assay: Cytotoxicity against human Hep2 cells after 48 hrs by SRB assay; assay type: functional, cell-based; details: HEp-2, 48 h
[26] = system: DU-145; assay: Cytotoxicity against human DU145 cells at 10 uM after 48 hrs by SRB assay; assay type: functional; details: DU-145, 48 h, read-out: GI
[27] = system: HCT-15; assay: Cytotoxicity against human HCT15 cells at 10 uM after 48 hrs by SRB assay; assay type: functional; details: HCT-15, 48 h, read-out: GI
[28] = system: HL-60; assay: Cytotoxicity against human HL60 cells after 48 hrs by SRB assay; assay type: functional, cell-based; details: HL-60, 48 h
[29] = system: MCF7; assay: Cytotoxicity against human MCF7 cells at 50 uM after 48 hrs by SRB assay; assay type: functional; details: MCF7, 48 h, read-out: GI
[30] = system: SF-295; assay: Cytotoxicity against human SF295 cells at 50 uM after 48 hrs by SRB assay; assay type: functional; details: SF-295, 48 h, read-out: GI
[31] = system: SF-295; assay: Cytotoxicity against human SF295 cells at 10 uM after 48 hrs by SRB assay; assay type: functional; details: SF-295, 48 h, read-out: GI
[32] = system: THP-1; assay: Cytotoxicity against human THP1 cells at 50 uM after 48 hrs by SRB assay; assay type: functional; details: THP-1, 48 h, read-out: GI
[33] = system: MCF7; assay: Cytotoxicity against human MCF7 cells at 30 uM after 48 hrs by SRB assay; assay type: functional; details: MCF7, 48 h, read-out: GI
[34] = system: HL-60; assay: Cytotoxicity against human HL60 cells at 10 uM after 48 hrs by SRB assay; assay type: functional; details: HL-60, 48 h, read-out: GI
[35] = system: THP-1; assay: Cytotoxicity against human THP1 cells at 30 uM after 48 hrs by SRB assay; assay type: functional; details: THP-1, 48 h, read-out: GI
[36] = system: A549; assay: Cytotoxicity against human A549 cells at 10 uM after 48 hrs by SRB assay; assay type: functional; details: A549, 48 h, read-out: GI

Structure (SMILES)	inhibition of growth at 50 µM [1] [%]	inhibition of growth at 30 µM [2] [%]	inhibition of growth at 30 µM [3] [%]	inhibition of growth at 30 µM [4] [%]	inhibition of growth at 50 µM [5] [%]	pIC50 [6]	inhibition of growth at 10 µM [7] [%]	inhibition of growth at 10 µM [8] [%]	inhibition of growth at 10 µM [9] [%]	pIC50 [10]	inhibition of growth at 30 µM [11] [%]	pIC50 [12]	inhibition of growth at 10 µM [13] [%]	inhibition of growth at 30 µM [14] [%]	pIC50 [15]	pIC50 [16]	inhibition of growth at 50 µM [17] [%]	pIC50 [18]	inhibition of growth at 30 µM [19] [%]	inhibition of growth at 50 µM [20] [%]	also measured
C=C(C)[C@@H]1CC[C@]2(C(=O)O)CC[C@]3(C)[C@H](CC[C@@H]4[C@@]5(C)CC[C@H](OCc6cn(-c7cccc(I)c7)nn6)C(C)(C)[C@@H]5CC[C@]43C)[C@@H]12	54	27	45	74	27	4.60	71	9	51	5.10	24	4.36	8	45	4.41	< 4.30	64	4.34	62	33	inhibition of growth at 50 µM [21]: 62%; inhibition of growth at 50 µM [22]: 72%; inhibition of growth at 30 µM [23]: 27%; pIC50 [24]: 4.41; pIC50 [25]: 5.42; inhibition of growth at 10 µM [26]: 23%; inhibition of growth at 10 µM [27]: 29%; pIC50 [28]: 4.37; inhibition of growth at 50 µM [29]: 61%; inhibition of growth at 50 µM [30]: 66%; inhibition of growth at 10 µM [31]: 6%; inhibition of growth at 50 µM [32]: 56%; inhibition of growth at 30 µM [33]: 58%; inhibition of growth at 10 µM [34]: 13%; inhibition of growth at 30 µM [35]: 41%; inhibition of growth at 10 µM [36]: 28%
C=C(C)[C@@H]1CC[C@]2(C(=O)O)CC[C@]3(C)[C@H](CC[C@@H]4[C@@]5(C)CC[C@H](OCc6cn(-c7cccc(CO)c7)nn6)C(C)(C)[C@@H]5CC[C@]43C)[C@@H]12	71	37	93	74	49	4.64	51	50	36	4.77	29	4.28	4	70	4.60	4.49	95	5.00	52	67	inhibition of growth at 50 µM [21]: 65%; inhibition of growth at 50 µM [22]: 78%; inhibition of growth at 30 µM [23]: 45%; pIC50 [24]: 4.30; pIC50 [25]: 5.10; inhibition of growth at 10 µM [26]: 43%; inhibition of growth at 10 µM [27]: 11%; pIC50 [28]: 5.15; inhibition of growth at 50 µM [29]: 75%; inhibition of growth at 50 µM [30]: 47%; inhibition of growth at 10 µM [31]: 27%; inhibition of growth at 50 µM [32]: 93%; inhibition of growth at 30 µM [33]: 71%; inhibition of growth at 10 µM [34]: 53%; inhibition of growth at 30 µM [35]: 91%; inhibition of growth at 10 µM [36]: 43%
C=C(C)[C@@H]1CC[C@]2(C(=O)O)CC[C@]3(C)[C@H](CC[C@@H]4[C@@]5(C)CC[C@H](OCc6cn(-c7cccc(OC)c7)nn6)C(C)(C)[C@@H]5CC[C@]43C)[C@@H]12	84	48	45	56	28	< 4.30	30	17	46	4.92	10	4.49	4	53	4.59	< 4.30	60	4.33	18	45	inhibition of growth at 50 µM [21]: 30%; inhibition of growth at 50 µM [22]: 57%; inhibition of growth at 30 µM [23]: 38%; pIC50 [24]: < 4.30; pIC50 [25]: 4.54; inhibition of growth at 10 µM [26]: 17%; inhibition of growth at 10 µM [27]: 23%; pIC50 [28]: 4.43; inhibition of growth at 50 µM [29]: 75%; inhibition of growth at 50 µM [30]: 55%; inhibition of growth at 10 µM [31]: 15%; inhibition of growth at 50 µM [32]: 54%; inhibition of growth at 30 µM [33]: 59%; inhibition of growth at 10 µM [34]: 20%; inhibition of growth at 30 µM [35]: 41%; inhibition of growth at 10 µM [36]: 34%
C=C(C)[C@@H]1CC[C@]2(C(=O)O)CC[C@]3(C)[C@H](CC[C@@H]4[C@@]5(C)CC[C@H](OCc6cn(-c7cc(OC)c(OC)c(OC)c7)nn6)C(C)(C)[C@@H]5CC[C@]43C)[C@@H]12	43	51	51	38	46	< 4.30	8	35	50	5.00	30	4.57	8	35	< 4.30	< 4.30	65	4.41	10	41	inhibition of growth at 50 µM [21]: 11%; inhibition of growth at 50 µM [22]: 48%; inhibition of growth at 30 µM [23]: 26%; pIC50 [24]: < 4.30; pIC50 [25]: < 4.30; inhibition of growth at 10 µM [26]: 3%; inhibition of growth at 10 µM [27]: 47%; pIC50 [28]: 4.43; inhibition of growth at 50 µM [29]: 74%; inhibition of growth at 50 µM [30]: 51%; inhibition of growth at 10 µM [31]: 28%; inhibition of growth at 50 µM [32]: 58%; inhibition of growth at 30 µM [33]: 71%; inhibition of growth at 10 µM [34]: 41%; inhibition of growth at 30 µM [35]: 44%; inhibition of growth at 10 µM [36]: 25%
